Non-standard residues stand in square brackets, D forms with d. Residues, ends and D or L forms follow the SMILES beside them. *: point of attachment. dPhe(4-Cl) = N[C@H](Cc1ccc(Cl)cc1)C(=O)O; Ahp = NCCCCCCC(=O)O; Bn = c1ccc(C*)cc1
Columns and labels:
MC4-R [1] = biological target: T1, MC4-R (Homo sapiens, UniProt P32245); assay: Functional evaluation: intracellular cAMP accumulation in HEK-293 cells expressing MC4-R (agonist/antagonist status); format: cell-based; design: expressed in transfected cells; host or cells: HEK-293; details: with or without alpha-MSH, 1 hour at 37° C
T1 sequence (P32245 whole entry): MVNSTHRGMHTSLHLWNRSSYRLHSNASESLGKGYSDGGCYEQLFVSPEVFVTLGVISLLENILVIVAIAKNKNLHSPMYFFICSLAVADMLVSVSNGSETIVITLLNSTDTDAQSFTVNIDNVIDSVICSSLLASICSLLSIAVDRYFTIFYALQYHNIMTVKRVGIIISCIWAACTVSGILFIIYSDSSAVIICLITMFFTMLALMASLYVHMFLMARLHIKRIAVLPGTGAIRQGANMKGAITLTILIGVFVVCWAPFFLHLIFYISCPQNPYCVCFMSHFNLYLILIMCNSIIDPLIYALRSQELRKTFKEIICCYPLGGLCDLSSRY
Description: The Ki (nM) of certain peptides were determined, as was the agonist/antagonist status with respect to MC4-R. Functional evaluation of peptides at MC4-R was performed by measuring the accumulation of intracellular cAMP in HEK-293 cells expressing MC4-R. Antagonistic activity was determined by measuring the inhibition of α-MSH-induced cAMP levels following exposure to the compounds. Cells, suspended in Earle's Balanced Salt Solution containing 10 mM HEPES, pH 7.5, 5 mM MgCl2, 1 mM glutamine, 0.1% albumin and 0.6 mM 3-isobutyl-1-methyl-xanthine, a phosphodiesterase inhibitor, were plated in 96 well plates at a density of 0.5×10^5 cells per well. Cells were incubated with the test peptides in the presence or absence of α-MSH for 1 hour at 37° C. cAMP levels were measured by EIA (Amersham) in the cell lysates. Data analysis and EC50 values were determined using nonlinear regression analysis with Prism Graph-Pad software.

MC4-R [2] = biological target: T1, MC4-R; assay: Competitive inhibition binding assay, 125I-NDP-alpha-MSH, hMC4-R membranes; design: expressed in transfected cells; details: for percent inhibition of 125I-NDP-alpha-MSH binding, MC4-R: hMC4-R membranes, 0.4 nM 125I-NDP-alpha-MSH, mean of triplicate, peptide concentration not given; for Ki: membranes, read-out: Ki MC-4 Mem
[3] = Conditioned taste aversion in rats; format: in vivo, rat; details: IP 1500 μg/kg, saccharin water intake day 1 vs day 3, FIG. 6
Description: Conditioned taste aversion was evaluated in rats using selected peptides. Male Sprague-Dawley rats weighing ˜300 g were kept on a 12 hour on/of light cycle. Lights out was adjusted to 12:00 p.m. with food ad libitum. Animals were trained to be accustomed to 30 minutes of access to water per day. On day 1 of the experiment, rats were given 30 minutes of access to water containing 0.15% saccharin immediately prior to being dosed ICV, IV or IP with compound. On day 2 they were given plain water for the appointed time. On day 3 the rats were given saccharin-containing water again. The amount of fluid these animals consumed on day 1 and day 3 was compared. Reduced intake on day 3 indicates a conditioned taste aversion due to illness induced by drug treatment on day 1.

[4] = Food intake and body weight change in male Sprague-Dawley rats; format: in vivo, rat; details: for average daily body weight gain / average daily body weight lost: saline animals gained 4 g
Description: Food intake and body weight change was evaluated for selected peptides. Male Sprague-Dawley rats weighing ˜300 g at the beginning of the experiment were kept on a 12 hour on/of light cycle. Lights out was adjusted to 12:00 p.m. to allow for dosing just prior to the start of their dark period. Rats (12/group) were fed powdered chow and water ad libitum. For 1 week before treatment, 24-hour food intake and body weight change was recorded to assess a baseline for the group during vehicle treatment. The rats were dosed ICV, IV, SC or IP on day 0 and food intake and body weight measured daily for 1 week. Animals were dosed once per week for up to 6 weeks and their food intake and daily weight changed compared to their baseline. FIGS. 3, 4 and 5 illustrate results of different peptides at different doses and by varying routes of administration.

MC1-R = MC1-R (Mus musculus, UniProt Q01727); assay: Competitive inhibition binding assay, 125I-NDP-alpha-MSH, B-16 mouse melanoma cell membranes; details: B-16 cells; read-out: Ki MC-1 B-16
MC1-R, sequence (Q01727 whole entry): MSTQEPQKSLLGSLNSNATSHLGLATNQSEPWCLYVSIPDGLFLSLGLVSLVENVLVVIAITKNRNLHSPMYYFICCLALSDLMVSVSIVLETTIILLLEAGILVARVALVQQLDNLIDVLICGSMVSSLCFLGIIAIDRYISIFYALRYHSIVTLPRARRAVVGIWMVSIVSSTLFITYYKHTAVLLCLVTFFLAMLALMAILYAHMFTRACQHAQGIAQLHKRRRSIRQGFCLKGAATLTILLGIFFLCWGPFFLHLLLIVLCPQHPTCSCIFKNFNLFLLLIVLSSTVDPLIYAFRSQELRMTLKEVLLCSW

hMC3-R = biological target: T2, hMC3-R (Homo sapiens, UniProt P41968); assay: Competitive inhibition binding assay, 125I-NDP-alpha-MSH, hMC3-R membranes; details: for percent inhibition of 125I-NDP-alpha-MSH binding, MC3-R: hMC3-R membranes, 0.4 nM 125I-NDP-alpha-MSH, mean of triplicate, peptide concentration not given; for Ki: membranes, read-out: Ki MC-3 Mem
T2 construct: expressed in transfected cells
T2 sequence (P41968 whole entry): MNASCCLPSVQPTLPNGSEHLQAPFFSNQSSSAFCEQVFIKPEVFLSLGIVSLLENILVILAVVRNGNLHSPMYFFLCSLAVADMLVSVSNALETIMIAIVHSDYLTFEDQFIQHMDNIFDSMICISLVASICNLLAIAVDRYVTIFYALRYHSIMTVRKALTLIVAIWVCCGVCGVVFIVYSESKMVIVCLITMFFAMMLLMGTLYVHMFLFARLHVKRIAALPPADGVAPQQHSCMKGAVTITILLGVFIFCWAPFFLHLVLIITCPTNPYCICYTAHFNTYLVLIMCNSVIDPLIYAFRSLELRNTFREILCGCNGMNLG

hMC5-R = biological target: T3, hMC5-R (Homo sapiens, UniProt P33032); assay: Competitive inhibition binding assay, 125I-NDP-alpha-MSH, hMC5-R membranes; details: for percent inhibition of 125I-NDP-alpha-MSH binding, MC5-R: hMC5-R membranes, 0.4 nM 125I-NDP-alpha-MSH, mean of triplicate, peptide concentration not given; for Ki: membranes, read-out: Ki MC-5 Mem
T3 construct: expressed in transfected cells
T3 sequence (P33032 whole entry): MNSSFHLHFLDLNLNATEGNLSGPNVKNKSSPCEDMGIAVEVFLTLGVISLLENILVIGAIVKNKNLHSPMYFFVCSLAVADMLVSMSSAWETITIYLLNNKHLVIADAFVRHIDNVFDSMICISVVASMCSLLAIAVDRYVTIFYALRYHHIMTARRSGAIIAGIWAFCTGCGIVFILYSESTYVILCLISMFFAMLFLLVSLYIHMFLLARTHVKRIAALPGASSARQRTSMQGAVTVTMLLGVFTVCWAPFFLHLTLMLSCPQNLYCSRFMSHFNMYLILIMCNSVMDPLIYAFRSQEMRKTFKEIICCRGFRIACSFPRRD

[5] = Penile erection induction in male rats; format: in vivo, rat; details: male Sprague-Dawley rats; iv, varying quantities; 30 minutes observation; FIG. 2
Description: The ability of compounds to induce penile erection (PE) in male rats was evaluated with selected peptides. Male Sprague-Dawley rats weighing 200-250 g were kept on a 12 hour on/off light cycle with food and water ad libitum. All behavioral studies were performed between 10 a.m. and 5 p.m. Groups of 4-8 rats were treated with peptides at a variety of doses via intravenous (IV), subcutaneous (SC), intracerebroventricular (ICV), intraperitoneal (IP) injection or administered intranasally (IN) using a micropipetor to deliver 25 μL of solution into one nostril. Immediately after treatment, rats were placed into individual polystyrene cages (27 cm long, 16 cm wide, and 25 cm high) for behavioral observation.

N=C(N)NCCCC(NC(=O)C(Cc1ccc(Cl)cc1)NC(=O)C(COCc1ccccc1)NC(=O)CCCCCCN)C(=O)NC(Cc1c[nH]c2ccccc12)C(N)=O [7′-amino-heptanoyl-Ser(Bzl)-D-Phe(4-Cl)-Arg-Trp-NH2]
HEK-293 (MC4-R) cells Classification (MC4-R [1]): Agonist
percent inhibition of 125I-NDP-alpha-MSH binding, MC4-R (MC4-R [2]): 99%
Ki (MC4-R [2]): 1 nM
conditioned taste aversion response [3]: no conditioned taste aversion response
conditioned taste aversion response ([3]; listed as 7′-amino-heptanoyl-Ser(Bzl)-D-Phe(4′-Cl)-Arg-Trp-NH2): did not induce a conditioned taste aversion response
average daily body weight gain ([4]; ICV 0.1 nmol): 3 g
average daily body weight lost ([4]; ICV 0.5 nmol): 1 g
average daily body weight lost ([4]; ICV 1.0 nmol): 3 g
time by which animals returned to baseline after dosing ([4]; ICV dosing, FIG. 4): ≤ 48 h
average daily body weight gain ([4]; IP 750 μg/kg): 4 g
average daily body weight gain ([4]; IP 1500 μg/kg): 2 g
average daily body weight lost ([4]; IP 3000 μg/kg): 1 g
Ki (MC1-R): 795 nM
percent inhibition of 125I-NDP-alpha-MSH binding, MC3-R (hMC3-R): 94%
Ki (hMC3-R): 25 nM
percent inhibition of 125I-NDP-alpha-MSH binding, MC5-R (hMC5-R): 73%
Ki (hMC5-R): 175 nM
penile erection induction [5]: induced erections

C[C@H](NC(=O)[C@H](Cc1c[nH]c2ccccc12)NC(=O)[C@H](CCCNC(=N)N)NC(=O)[C@@H](Cc1ccc(Cl)cc1)NC(=O)[C@H](COCc1ccccc1)NC(=O)CCCCCCN)C(N)=O [7′-amino-heptanoyl-Ser(Bzl)-D-Phe(4-Cl)-Arg-Trp-Ala-NH2] (H-[Ahp]S(Bn)[dPhe(4-Cl)]RWA-NH2)
HEK-293 (MC4-R) cells Classification (MC4-R [1]): Agonist
percent inhibition of 125I-NDP-alpha-MSH binding, MC4-R (MC4-R [2]): 100%
Ki (MC4-R [2]): 2 nM
Ki (MC1-R): 142 nM
percent inhibition of 125I-NDP-alpha-MSH binding, MC3-R (hMC3-R): 93%
Ki (hMC3-R): 37 nM
percent inhibition of 125I-NDP-alpha-MSH binding, MC5-R (hMC5-R): 79%
Ki (hMC5-R): 112 nM
